Consider ten molecules from ChEMBL document CHEMBL3046446, “Structure and Acaricidal Activity of Pyrazolecarboxamides and Thiazole-5-carboxamides” (1994).

Holding throughout (assay type): functional
Details in all cases: 120 h

For test [1], the system named is Tetranychus urticae. Put plainly: Acaricidal activity against Tetranychus urticae (two-spotted spider mite) in kidney bean leaf assessed as mortality at 12.5 ppm at 25 degC measured after 5 days.
The subject of test [2] is Tetranychus urticae. Kind of test: Acaricidal activity against Tetranychus urticae (two-spotted spider mite) in kidney bean leaf assessed as mortality at 3.1 ppm at 25 degC measured after 5 days.
The subject of test [3] is Tetranychus urticae. Kind of test: Acaricidal activity against Tetranychus urticae (two-spotted spider mite) in kidney bean leaf assessed as mortality at 50 ppm at 25 degC measured after 5 days.
Test [4] has as its system Tetranychus urticae. Kind of test: Acaricidal activity against Tetranychus urticae (two-spotted spider mite) in kidney bean leaf assessed as mortality at 200 ppm at 25 degC measured after 5 days.
The test system of test [5] is Tetranychus urticae. Kind of test: Acaricidal activity against Tetranychus urticae (two-spotted spider mite) in kidney bean leaf assessed as mortality at 500 ppm at 25 degC measured after 5 days.

A word on the mortality: it is the percentage killed. With `Cc1ncsc1C(=O)NCc1ccc(C(C)(C)C)cc1`, the mortality at 12.5 ppm in the test with Tetranychus urticae [1] came out at 0%. The mortality at 3.1 ppm in the test with Tetranychus urticae [2] worked out at 0%. Also, the mortality at 50 ppm in the test with Tetranychus urticae [3] was found to be 0%. Further, the mortality at 200 ppm in the test with Tetranychus urticae [4] worked out at 0%. For the same molecule, in the test on Tetranychus urticae [5], the mortality at 500 ppm was determined as 30%.
For the molecule `CCc1cc(C(=O)NCc2ccc(C(C)(C)C)cc2)n(C)n1`, the mortality at 12.5 ppm with Tetranychus urticae [1] is 100%. Moreover, the mortality at 3.1 ppm in the test with Tetranychus urticae [2] turned out to be 0%. Also, in the test with Tetranychus urticae [3], the mortality at 50 ppm amounted to 100%. For the same molecule, in the test on Tetranychus urticae [4], the mortality at 200 ppm stood at 100%. Besides, in the test with Tetranychus urticae [5], the mortality at 500 ppm stood at 100%.
On to `Cc1nn(C)cc1C(=O)NCc1ccc(C(C)(C)C)cc1`, for which the mortality at 12.5 ppm in the test on Tetranychus urticae [1] amounted to 0%. Besides, the mortality at 3.1 ppm with Tetranychus urticae [2] came out at 0%. In addition, the mortality at 50 ppm in the test with Tetranychus urticae [3] turned out to be 0%. Further, the mortality at 200 ppm in the test on Tetranychus urticae [4] is 80%. Further, the mortality at 500 ppm in the test on Tetranychus urticae [5] is 100%.
As to `CCn1ncc(C(=O)NCc2ccc(C(C)(C)C)cc2)c1C`, the mortality at 12.5 ppm with Tetranychus urticae [1] stood at 0%. Also, the mortality at 3.1 ppm in the test on Tetranychus urticae [2] came out at 0%. In the test on Tetranychus urticae [3], the mortality at 50 ppm worked out at 0%. In the test on Tetranychus urticae [4], the mortality at 200 ppm was found to be 0%. Also, in the test on Tetranychus urticae [5], the mortality at 500 ppm came out at 0%.
As for `Cc1nc(C)c(C(=O)NCc2ccc(C(C)(C)C)cc2)s1`, the mortality at 12.5 ppm in the test with Tetranychus urticae [1] was 0%. In the test on Tetranychus urticae [2], the mortality at 3.1 ppm came out at 0%. Also, in the test with Tetranychus urticae [3], the mortality at 50 ppm is 100%. For the same molecule, the mortality at 200 ppm in the test with Tetranychus urticae [4] was found to be 100%. The mortality at 500 ppm in the test with Tetranychus urticae [5] worked out at 100%.
Consider `Cc1cc(C(=O)NCc2ccc(C(C)(C)C)cc2)n(C)n1`, for which, in the test with Tetranychus urticae [1], the mortality at 12.5 ppm worked out at 30%. Also, in the test on Tetranychus urticae [2], the mortality at 3.1 ppm was 0%. In the test on Tetranychus urticae [3], the mortality at 50 ppm was found to be 100%. The mortality at 200 ppm with Tetranychus urticae [4] amounted to 100%. The mortality at 500 ppm with Tetranychus urticae [5] was 100%.
Take `CCc1nc(C)c(C(=O)N(C)Cc2ccc(C(C)(C)C)cc2)s1`: in the test on Tetranychus urticae [1], the mortality at 12.5 ppm amounted to 30%. In addition, the mortality at 3.1 ppm in the test on Tetranychus urticae [2] turned out to be 0%. Besides, in the test with Tetranychus urticae [3], the mortality at 50 ppm was determined as 100%. In addition, the mortality at 200 ppm in the test with Tetranychus urticae [4] turned out to be 100%. Also, the mortality at 500 ppm with Tetranychus urticae [5] was 100%.
In the case of `CCc1cc(C(=O)NCc2ccc(C(C)(C)C)cc2)nn1C`, in the test on Tetranychus urticae [1], the mortality at 12.5 ppm stood at 0%. Besides, in the test on Tetranychus urticae [2], the mortality at 3.1 ppm was determined as 0%. The mortality at 50 ppm in the test on Tetranychus urticae [3] is 0%. The mortality at 200 ppm in the test with Tetranychus urticae [4] came to 0%. Further, in the test with Tetranychus urticae [5], the mortality at 500 ppm worked out at 0%.
`CCn1nc(C)cc1C(=O)NCc1ccc(C(C)(C)C)cc1`: in the test on Tetranychus urticae [1], the mortality at 12.5 ppm is 0%. Further, in the test with Tetranychus urticae [2], the mortality at 3.1 ppm amounted to 0%. For the same molecule, the mortality at 50 ppm with Tetranychus urticae [3] came to 0%. In addition, the mortality at 200 ppm in the test on Tetranychus urticae [4] worked out at 0%. In addition, in the test with Tetranychus urticae [5], the mortality at 500 ppm turned out to be 0%.
Turning to `CCn1cc(C(=O)NCc2ccc(C(C)(C)C)cc2)c(C)n1`, the mortality at 12.5 ppm in the test on Tetranychus urticae [1] was 30%. Also, in the test on Tetranychus urticae [2], the mortality at 3.1 ppm was 0%. Also, the mortality at 50 ppm in the test on Tetranychus urticae [3] was found to be 100%. In addition, the mortality at 200 ppm with Tetranychus urticae [4] was found to be 100%. Moreover, in the test on Tetranychus urticae [5], the mortality at 500 ppm came out at 100%.
